The values below come from US20250171417A1, “HETEROCYCLIC DERIVATIVE, AND COMPOSITION AND PHARMACEUTICAL USE THEREOF” (Xizang Haisco Pharmaceutical Co., Ltd., priority 2021, published 2025).

The assay deals with Prostate cancer cells 22RV1. Put plainly: Experiment on inhibiting 22RV1 cell proliferation (CellTiter-Glo, 7 days). In kind it is cell-based. As to conditions: Homo sapiens, 168 h, 22RV1 cells, 7 days incubation, read-out: IC50 values for inhibition of 22RVI cells. On the procedure:
Prostate cancer cells 22RV1 were purchased from ATCC, the cell medium was RPMI 1640+10% FBS, and the cells were cultured in an incubator at 37° C. under 5% CO2. On day 1, the cells in the exponential growth phase were collected. With a 1% css-FBS phenol red-free medium, the cell suspension was adjusted to a corresponding concentration, plated at 2000 cells/well and incubated overnight. On day 2, compounds at different concentrations were added, and the plate was placed in the incubator and incubated for further 7 days. After the incubation was completed, according to operation instructions for a CellTiter-Glo kit (Promega, G7573), 50 μL of CellTiter-Glo reagents, which were already pre-melted and equilibrated to room temperature, were added to each well, and the mixtures were uniformly mixed for 2 min using a microplate shaker. The plate was placed at room temperature for 10 min. and then […] signal values were measured using a microplate reader (PHERAstar FSX). The results were processed according to formula (I), the inhibition rate of the compound at different concentrations was calculated, and the IC50 value of the compound with an inhibition rate of 50% was calculated using origin9.2 software with DoseResp function, wherein RLUcompound was the readout of the treated group, and RLUcontrol was the average value of the DMSO vehicle control group.
A general note: In ATP-based viability assays light output follows the ATP content of the culture.

Where [1] appears, read: cells without a unit of their own (μM).
Setting [2] is: cells with nM printed beside the value.

The structures appear in SMILES notation. Like-named read-outs stand apart in the source and are kept apart here.

Turning to `O=C1CCC(N2C(=O)c3ccc(N4CC5CC(CN6CCC(c7cnn(C8(C(=O)Nc9ccc(C(F)(F)F)cc9Cl)CCC8)c7)CC6)CC5C4)cc3C2=O)C(=O)N1` (stereo not drawn) [Compound 91, N-(2-chloro-4-(trifluoromethyl)phenyl)-1-(4-(1-((2-(2-(2,6-dioxopiperidin-3-yl)-1,3-dioxoisoindolin-5-yl)octahydrocyclopenta[c]pyrrol-5-yl)methyl)piperidin-4-yl)-1H-pyrazol-1-yl)cyclobutane-1-carboxamide], under setting [1], the half-maximal inhibitory concentration (IC50) was under 1 µM. The same measure, in the same setting: the figure for `CC(C)(C(=O)Nc1ccc(C#N)c2ncccc12)n1cc(C#CC2CN(c3ccc4c(c3)C(=O)N(C3CCC(=O)NC3=O)C4=O)C2)cn1` (stereo not drawn) [Compound 43, N-(8-cyanoquinolin-5-yl)-2-(4-((1-(2-(2,6-dioxopiperidin-3-yl)-1,3-dioxoisoindolin-5-yl)azetidin-3-yl)ethynyl)-1H-pyrazol-1-yl)-2-methylpropanamide] is under 1 µM. Regarding `N#Cc1ccc(NC(=O)C2(n3cc(C#CC4CN(c5ccc6c(c5)C(=O)N(C5CCC(=O)NC5=O)C6=O)C4)cn3)CCCC2)cc1C(F)(F)F` (stereo not drawn) [Compound 48, N-(4-cyano-3-(trifluoromethyl)phenyl)-1-(4-((1-(2-(2,6-dioxopiperidin-3-yl)-1,3-dioxoisoindolin-5-yl)azetidin-3-yl)ethynyl)-1H-pyrazol-1-yl)cyclopentane-1-carboxamide], the IC50 under setting [2] was under 0.1 µM.

For `CC(C)(C(=O)Nc1ccc(C(F)(F)F)cc1Cl)n1cnc2cc(C#CC3CN(c4ccc5c(c4)C(=O)N(C4CCC(=O)NC4=O)C5=O)C3)ccc21` (stereo not drawn) [Compound 162, N-(2-chloro-4-(trifluoromethyl)phenyl)-2-(5-((1-(2-(2,6-dioxopiperidin-3-yl)-1,3-dioxoisoindolin-5-yl)azetidin-3-yl)ethynyl)-1H-benzo[d]imidazol-1-yl)-2-methylpropanamide], under setting [1], the half-inhibitory concentration (IC50) was under 1 µM. For `CC(C)(C(=O)Nc1ccc(C#N)c2ccccc12)n1cc(C#CC2(F)CN(c3ccc4c(c3)C(=O)N(C3CCC(=O)NC3=O)C4=O)C2)cn1` (stereo not drawn) [Compound 68, N-(4-cyanonaphthalen-1-yl)-2-(4-(2-(1-(2-(2,6-dioxopiperidin-3-yl)-1,3-dioxo-2,3-dihydro-1H-isoindol-5-yl)-3-fluoroazetidin-3-yl)ethynyl)-1H-pyrazol-1-yl)-2-methylpropanamide], under setting [2], the concentration for half-maximal inhibition (IC50) is under 0.05 µM. The same measure, in the same setting: to `N#Cc1ccc(NC(=O)C2(n3cc(C#CC4CN(c5ccc6c(c5)C(=O)N(C5CCC(=O)NC5=O)C6=O)C4)cn3)CCC2)c(C2CC2)c1` (stereo not drawn) [Compound 45, N-(4-cyano-2-cyclopropylphenyl)-1-(4-((1-(2-(2,6-dioxopiperidin-3-yl)-1,3-dioxoisoindolin-5-yl)azetidin-3-yl)ethynyl)-1H-pyrazol-1-yl)cyclobutane-1-carboxamide] belongs under 0.05 µM; to `N#Cc1ccc(NC(=O)C2(n3cc(C#CC4CN(c5ccc6c(c5)C(=O)N(C5CCC(=O)NC5=O)C6=O)C4)cn3)CCC2)c2ccccc12` (stereo not drawn) [Compound 34, N-(4-cyanonaphthalen-1-yl)-1-(4-((1-(2-(2,6-dioxopiperidin-3-yl)-1,3-dioxoisoindolin-5-yl)azetidin-3-yl)ethynyl)-1H-pyrazol-1-yl)cyclobutane-1-carboxamide], under 0.1 µM; to `Cc1nn(C2(C(=O)Nc3ccc(C(F)(F)F)cc3Cl)CCC2)c(C)c1C#CC1CN(c2ccc3c(c2)C(=O)N(C2CCC(=O)NC2=O)C3=O)C1` (stereo not drawn) [Compound 166, N-(2-chloro-4-(trifluoromethyl)phenyl)-1-(4-((1-(2-(2,6-dioxopiperidin-3-yl)-1,3-dioxoisoindolin-5-yl)azetidin-3-yl)ethynyl)-3,5-dimethyl-1H-pyrazol-1-yl)cyclobutane-1-carboxamide], under 0.05 µM. `CC(C)(C(=O)Nc1ccc(C(F)(F)F)cc1C#N)n1cc(C#CC2CN(c3ccc4c(c3)C(=O)N(C3CCC(=O)NC3=O)C4=O)C2)cn1` (stereo not drawn) [Compound 42, N-(2-cyano-4-(trifluoromethyl)phenyl)-2-(4-((1-(2-(2,6-dioxopiperidin-3-yl)-1,3-dioxoisoindolin-5-yl)azetidin-3-yl)ethynyl)-1H-pyrazol-1-yl)-2-methylpropanamide]: the half-maximal inhibitory concentration (IC50) under setting [1] is under 1 µM.

Consider `CC(C)(C(=O)Nc1ccc(C#N)c2ccccc12)n1cc(C#CC2CN(c3cc4c(cc3F)C(=O)N(C3CCC(=O)NC3=O)C4=O)C2)cn1` (stereo not drawn) [Compound 81], for which the IC50 under setting [1] was under 1 µM.

Turning to `CNC(=O)c1cc(C(F)(F)F)ccc1NC(=O)C(C)(C)n1cc(C#CC2CN(c3ccc4c(c3)C(=O)N(C3CCC(=O)NC3=O)C4=O)C2)cn1` (stereo not drawn) [Compound 52, 2-(2-(4-((1-(2-(2,6-dioxopiperidin-3-yl)-1,3-dioxoisoindolin-5-yl)azetidin-3-yl)ethynyl)-1H-pyrazol-1-yl)-2-methylpropanamido)-N-methyl-5-(trifluoromethyl)benzamide], the concentration for half-maximal inhibition (IC50) under setting [1] was under 1 µM. `Cn1c(C(F)(F)F)ccc(NC(=O)C(C)(C)n2cc(C#CC3CN(c4ccc5c(c4)C(=O)N(C4CCC(=O)NC4=O)C5=O)C3)cn2)c1=O` (stereo not drawn) [Compound 178]: the half-maximal inhibitory concentration (IC50) under setting [2] is under 0.05 µM. In the case of `CN(C)c1ccc(NC(=O)C2(n3cc(C#CC4CN(c5ccc6c(c5)C(=O)N(C5CCC(=O)NC5=O)C6=O)C4)cn3)CCC2)c(Cl)c1` (stereo not drawn) [Compound 181, N-(2-chloro-4-(dimethylamino)phenyl)-1-(4-(2-(1-(2-(2,6-dioxopiperidin-3-yl)-1,3-dioxo-2,3-dihydro-1H-isoindol-5-yl)azetidin-3-yl)ethynyl)-1H-pyrazol-1-yl)cyclobutane-1-carboxamide], under setting [2], the IC50 was under 0.05 µM. On the same count and under the same terms, the figure for `O=C1CCC(N2C(=O)c3ccc(N4CC(C#Cc5cnn(C6(C(=O)Nc7ccc(C(F)(F)F)cc7Cl)CCCC6)c5)C4)cc3C2=O)C(=O)N1` (stereo not drawn) [Compound 69, N-(2-chloro-4-(trifluoromethyl)phenyl)-1-(4-((1-(2-(2,6-dioxopiperidin-3-yl)-1,3-dioxoisoindolin-S-yl)azetidin-3-yl)ethynyl)-1H-pyrazol-1-yl)cyclopentane-1-carboxamide] is under 0.05 µM; for `O=C1CCC(N2C(=O)c3ccc(N4CC(C#Cc5cnn(C6(C(=O)Nc7ccc(C(F)(F)F)c(C8CC8)c7)CCC6)c5)C4)cc3C2=O)C(=O)N1` (stereo not drawn) [Compound 75, N-(3-cyclopropyl-4-(trifluoromethyl)phenyl)-1-(4-((1-(2-(2,6-dioxopiperidin-3-yl)-1,3-dioxoisoindolin-5-yl)azetidin-3-yl)ethynyl)-1H-pyrazol-1-yl)cyclobutane-1-carboxamide] it is under 0.05 µM.

On to `CC(C)(C(=O)Nc1ccc(C(F)(F)F)cc1Cl)n1cnc2ccc(C#CC3CN(c4ccc5c(c4)C(=O)N(C4CCC(=O)NC4=O)C5=O)C3)cc21` (stereo not drawn) [Compound 161, N-(2-chloro-4-(trifluoromethyl)phenyl)-2-(6-((1-(2-(2,6-dioxopiperidin-3-yl)-1,3-dioxoisoindolin-5-yl)azetidin-3-yl)ethynyl)-1H-benzo[d]imidazol-1-yl)-2-methylpropanamide], for which the IC50 under setting [1] was under 1 µM. The same measure, in the same setting: the figure for `CC(C)(C(=O)Nc1ccc(C#N)c(F)c1)n1cc(C#CC2CN(c3ccc4c(c3)C(=O)N(C3CCC(=O)NC3=O)C4=O)C2)cn1` (stereo not drawn) [Compound 32, N-(4-cyano-3-fluorophenyl)-2-(4-((1-(2-(2,6-dioxopiperidin-3-yl)-1,3-dioxoisoindolin-5-yl)azetidin-3-yl)ethynyl)-1H-pyrazol-1-yl)-2-methylpropanamide] is under 1 µM. For the compound `CC(C(=O)Nc1ccc(C#N)c(C(F)(F)F)c1)n1cc(C#CC2CN(c3ccc4c(c3)C(=O)N(C3CCC(=O)NC3=O)C4=O)C2)cn1` (stereo not drawn) [Compound 77, N-(4-cyano-3-(trifluoromethyl)phenyl)-2-(4-((1-(2-(2,6-dioxopiperidin-3-yl)-1,3-dioxoisoindolin-5-yl)azetidin-3-yl)ethynyl)-1H-pyrazol-1-yl) propanamide], under setting [2], the half-inhibitory concentration (IC50) is under 0.05 µM. On the same count and under the same terms, to `C#Cc1cc(C#N)ccc1NC(=O)C(C)(C)n1cc(C#CC2CN(c3ccc4c(c3)C(=O)N(C3CCC(=O)NC3=O)C4=O)C2)cn1` (stereo not drawn) [Compound 189, N-(4-cyano-2-ethynylphenyl)-2-(4-((1-(2-(2,6-dioxopiperidin-3-yl)-1,3-dioxoisoindolin-5-yl)azetidin-3-yl)ethynyl)-1H-pyrazol-1-yl)-2-methylpropanamide] belongs under 0.1 µM. Same read-out and setting: to `CC#Cc1cc(C(F)(F)F)ccc1NC(=O)C(C)(C)n1cc(C#CC2CN(c3ccc4c(c3)C(=O)N(C3CCC(=O)NC3=O)C4=O)C2)c(C#N)n1` (stereo not drawn) [Compound 202, 2-(3-cyano-4-((1-(2-(2,6-dioxopiperidin-3-yl)-1,3-dioxoisoindolin-5-yl)azetidin-3-yl)ethynyl)-1H-pyrazol-1-yl)-2-methyl-N-(2-(prop-1-yn-1-yl)-4-(trifluoromethyl)phenyl) propanamide] belongs under 0.1 µM.

For `[2H]C([2H])([2H])C(C(=O)Nc1ccc(C(F)(F)F)cc1C#CC)(n1cc(C#CC2CN(c3ccc4c(c3)C(=O)N(C3CCC(=O)NC3=O)C4=O)C2)cn1)C([2H])([2H])[2H]` (stereo not drawn) [Compound 175, 2-(4-((1-(2-(2,6-dioxopiperidin-3-yl)-1,3-dioxoisoindolin-5-yl)azetidin-3-yl)ethynyl)-1H-pyrazol-1-yl)-2-(methyl-d3)—N-(2-(prop-1-yn-1-yl)-4-(trifluoromethyl)phenyl) propanamide-d3], the IC50 under setting [2] was under 0.1 µM.

For orientation: IC50 means the concentration that inhibits the measured activity by half.
